For assay [1], the target named is Adenosylmethionine-8-amino-7-oxononanoate aminotransferase (Mycobacterium tuberculosis, UniProt P9WQ81). As to the kind of experiment: Mycobacterium tuberculosis BioA enzyme inhibitor Measured in Biochemical System Using Plate Reader - 2163-02_Inhibitor_Dose_CherryPick_Activity. It counts as functional, Mycobacterium tuberculosis UT205.
The target of assay [2] is Nonstructural protein 1 (Influenza A virus, UniProt Q194T2). It counts as functional, Influenza A virus (A/California/07/2009(H1N1)).
Assay [3] has as its target Ras and Rab interactor 1/Tyrosine-protein kinase ABL1 (Homo sapiens, UniProt P00519+Q13671). It counts as functional.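 Further: biochemical TR-FRET dose-response test measuring inhibition of binding between Rin1 and Abl proteins.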
The target in assay [4] is T1, Histone-lysine N-methyltransferase NSD2 (Homo sapiens, UniProt O96028).
T1 sequence (O96028 whole entry): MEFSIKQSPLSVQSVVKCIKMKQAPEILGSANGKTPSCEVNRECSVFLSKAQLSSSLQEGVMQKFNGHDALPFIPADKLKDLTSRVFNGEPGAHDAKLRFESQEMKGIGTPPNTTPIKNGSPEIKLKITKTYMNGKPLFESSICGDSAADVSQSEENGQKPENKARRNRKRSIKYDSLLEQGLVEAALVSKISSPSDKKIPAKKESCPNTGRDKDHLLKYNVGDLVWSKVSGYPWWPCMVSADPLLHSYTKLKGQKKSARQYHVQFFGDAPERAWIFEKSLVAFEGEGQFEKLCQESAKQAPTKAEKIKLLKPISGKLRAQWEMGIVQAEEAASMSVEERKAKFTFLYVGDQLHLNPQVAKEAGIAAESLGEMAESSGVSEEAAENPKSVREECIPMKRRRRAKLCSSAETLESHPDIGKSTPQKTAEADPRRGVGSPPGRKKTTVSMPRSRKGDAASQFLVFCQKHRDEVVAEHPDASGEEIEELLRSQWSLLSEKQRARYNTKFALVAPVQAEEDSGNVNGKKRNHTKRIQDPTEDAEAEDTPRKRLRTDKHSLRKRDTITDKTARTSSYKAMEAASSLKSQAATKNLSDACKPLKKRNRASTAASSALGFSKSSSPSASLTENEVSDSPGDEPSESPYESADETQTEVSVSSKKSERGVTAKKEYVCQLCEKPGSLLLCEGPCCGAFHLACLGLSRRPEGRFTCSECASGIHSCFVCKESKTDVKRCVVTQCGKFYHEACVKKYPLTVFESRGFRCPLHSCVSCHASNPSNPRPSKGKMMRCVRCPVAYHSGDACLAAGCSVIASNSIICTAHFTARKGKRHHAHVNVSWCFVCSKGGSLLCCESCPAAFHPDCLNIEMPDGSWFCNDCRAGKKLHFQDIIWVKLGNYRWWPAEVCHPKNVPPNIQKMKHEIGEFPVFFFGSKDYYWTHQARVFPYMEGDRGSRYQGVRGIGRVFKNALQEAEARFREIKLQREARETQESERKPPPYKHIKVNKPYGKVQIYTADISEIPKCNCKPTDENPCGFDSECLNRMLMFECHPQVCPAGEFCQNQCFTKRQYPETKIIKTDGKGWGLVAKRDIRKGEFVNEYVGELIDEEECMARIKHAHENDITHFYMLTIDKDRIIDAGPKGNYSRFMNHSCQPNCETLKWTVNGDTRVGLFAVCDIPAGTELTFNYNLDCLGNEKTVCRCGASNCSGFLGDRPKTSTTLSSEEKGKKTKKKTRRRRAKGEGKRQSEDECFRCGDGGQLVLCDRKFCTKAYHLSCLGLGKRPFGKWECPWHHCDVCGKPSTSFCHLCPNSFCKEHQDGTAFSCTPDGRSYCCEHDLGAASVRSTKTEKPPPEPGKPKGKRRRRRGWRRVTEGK
It counts as biochemical.

Assay [5] addresses T2, High affinity choline transporter 1 (Homo sapiens, UniProt Q9GZV3).
T2 sequence (Q9GZV3 whole entry): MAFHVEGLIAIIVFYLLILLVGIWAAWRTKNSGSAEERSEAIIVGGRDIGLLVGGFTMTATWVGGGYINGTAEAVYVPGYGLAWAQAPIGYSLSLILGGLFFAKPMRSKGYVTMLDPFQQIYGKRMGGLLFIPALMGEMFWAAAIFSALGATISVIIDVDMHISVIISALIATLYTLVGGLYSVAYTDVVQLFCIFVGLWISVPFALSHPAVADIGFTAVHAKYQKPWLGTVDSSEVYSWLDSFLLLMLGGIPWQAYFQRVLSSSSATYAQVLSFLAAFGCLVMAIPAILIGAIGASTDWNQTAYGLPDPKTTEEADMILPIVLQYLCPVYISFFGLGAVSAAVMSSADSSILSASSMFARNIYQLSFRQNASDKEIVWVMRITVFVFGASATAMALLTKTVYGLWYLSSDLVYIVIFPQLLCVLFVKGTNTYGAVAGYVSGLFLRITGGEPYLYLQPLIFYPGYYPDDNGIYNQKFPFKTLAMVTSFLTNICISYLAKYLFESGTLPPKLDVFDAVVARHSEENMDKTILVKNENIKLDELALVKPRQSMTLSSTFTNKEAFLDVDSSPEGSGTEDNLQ
Kind of assay: human choline transporter blockers, potency – cell-based, 5-point CRC, membrane potential dye, dose response (AID 504840). It counts as functional.

Assay [6] deals with T2, High affinity choline transporter 1. Kind of assay: human choline transporter blockers, potency – cell-based, 10-point CRC, membrane potential dye, dose response (AID 588401).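 Further: membrane potential dye fluorescence of choline-evoked depolarization via CHT.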 It counts as functional.
In assay [7] the target is Tyrosine-protein phosphatase non-receptor type 11 (Homo sapiens, UniProt Q06124). Kind of assay: PTPN11 enzyme inhibitors – biochemical, selectivity assay for STEP inhibitor project, dose response (AID 602367). To be noted: read-out: IC50_Mean. It counts as functional.
Assay [8] concerns the target Tyrosine-protein phosphatase non-receptor type 5 (Homo sapiens, UniProt P54829). Kind of assay: PTPN5 enzyme inhibition – biochemical, fluorescence intensity, uHTS hits, confirmation (AID 602372). It counts as functional. The following applies: read-out: IC50_Mean.
For assay [9], the target named is Dual specificity protein phosphatase 3 (Homo sapiens, UniProt P51452). Kind of assay: VHR phosphatase inhibition, dose response, selectivity assay for STEP inhibitor project, biochemical (AID 602374). It counts as functional. To be noted: read-out: IC50_Mean.
The target of assay [10] is DNA repair and recombination protein RAD54-like (Homo sapiens, UniProt Q92698). As to the kind of experiment: RAD54 Holliday junction migration blockers – biochemical, fluorescence, cherry-picked samples, dose series, confirmation (AID 651657). It counts as functional.
Assay [11] concerns the target T3, Replicative DNA helicase DnaB (Mycobacterium tuberculosis, UniProt P9WMR3).
T3 sequence (P9WMR3 whole entry): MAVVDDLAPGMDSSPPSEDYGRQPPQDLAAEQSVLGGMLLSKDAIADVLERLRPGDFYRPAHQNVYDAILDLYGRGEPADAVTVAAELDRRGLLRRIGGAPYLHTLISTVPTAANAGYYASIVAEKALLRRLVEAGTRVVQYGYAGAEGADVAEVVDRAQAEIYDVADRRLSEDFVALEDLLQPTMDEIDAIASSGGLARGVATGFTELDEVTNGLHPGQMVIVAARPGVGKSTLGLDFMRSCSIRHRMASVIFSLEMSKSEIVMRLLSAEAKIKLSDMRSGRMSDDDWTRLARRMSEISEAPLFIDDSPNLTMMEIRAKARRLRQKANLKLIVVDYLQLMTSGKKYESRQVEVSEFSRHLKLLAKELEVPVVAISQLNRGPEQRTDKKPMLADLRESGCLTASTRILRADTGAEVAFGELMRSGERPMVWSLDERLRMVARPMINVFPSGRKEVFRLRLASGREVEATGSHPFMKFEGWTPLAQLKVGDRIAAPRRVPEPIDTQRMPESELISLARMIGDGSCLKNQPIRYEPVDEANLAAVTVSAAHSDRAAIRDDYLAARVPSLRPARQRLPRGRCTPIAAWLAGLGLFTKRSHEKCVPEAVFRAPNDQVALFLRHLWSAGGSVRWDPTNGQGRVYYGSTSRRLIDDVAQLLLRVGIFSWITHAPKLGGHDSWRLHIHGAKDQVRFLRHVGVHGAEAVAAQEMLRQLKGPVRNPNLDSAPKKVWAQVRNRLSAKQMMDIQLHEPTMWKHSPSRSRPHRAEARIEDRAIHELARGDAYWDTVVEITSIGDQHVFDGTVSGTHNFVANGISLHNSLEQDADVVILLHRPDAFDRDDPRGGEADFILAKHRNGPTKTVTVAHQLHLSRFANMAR
Kind of assay: DnaB intein splicing inhibitors, dose response, biochemical, cell-free fluorescence (AID 449749). It counts as functional.

Assay [12] deals with T4, Apoptotic protease-activating factor 1 (Homo sapiens, UniProt O14727).
T4 sequence (O14727 whole entry): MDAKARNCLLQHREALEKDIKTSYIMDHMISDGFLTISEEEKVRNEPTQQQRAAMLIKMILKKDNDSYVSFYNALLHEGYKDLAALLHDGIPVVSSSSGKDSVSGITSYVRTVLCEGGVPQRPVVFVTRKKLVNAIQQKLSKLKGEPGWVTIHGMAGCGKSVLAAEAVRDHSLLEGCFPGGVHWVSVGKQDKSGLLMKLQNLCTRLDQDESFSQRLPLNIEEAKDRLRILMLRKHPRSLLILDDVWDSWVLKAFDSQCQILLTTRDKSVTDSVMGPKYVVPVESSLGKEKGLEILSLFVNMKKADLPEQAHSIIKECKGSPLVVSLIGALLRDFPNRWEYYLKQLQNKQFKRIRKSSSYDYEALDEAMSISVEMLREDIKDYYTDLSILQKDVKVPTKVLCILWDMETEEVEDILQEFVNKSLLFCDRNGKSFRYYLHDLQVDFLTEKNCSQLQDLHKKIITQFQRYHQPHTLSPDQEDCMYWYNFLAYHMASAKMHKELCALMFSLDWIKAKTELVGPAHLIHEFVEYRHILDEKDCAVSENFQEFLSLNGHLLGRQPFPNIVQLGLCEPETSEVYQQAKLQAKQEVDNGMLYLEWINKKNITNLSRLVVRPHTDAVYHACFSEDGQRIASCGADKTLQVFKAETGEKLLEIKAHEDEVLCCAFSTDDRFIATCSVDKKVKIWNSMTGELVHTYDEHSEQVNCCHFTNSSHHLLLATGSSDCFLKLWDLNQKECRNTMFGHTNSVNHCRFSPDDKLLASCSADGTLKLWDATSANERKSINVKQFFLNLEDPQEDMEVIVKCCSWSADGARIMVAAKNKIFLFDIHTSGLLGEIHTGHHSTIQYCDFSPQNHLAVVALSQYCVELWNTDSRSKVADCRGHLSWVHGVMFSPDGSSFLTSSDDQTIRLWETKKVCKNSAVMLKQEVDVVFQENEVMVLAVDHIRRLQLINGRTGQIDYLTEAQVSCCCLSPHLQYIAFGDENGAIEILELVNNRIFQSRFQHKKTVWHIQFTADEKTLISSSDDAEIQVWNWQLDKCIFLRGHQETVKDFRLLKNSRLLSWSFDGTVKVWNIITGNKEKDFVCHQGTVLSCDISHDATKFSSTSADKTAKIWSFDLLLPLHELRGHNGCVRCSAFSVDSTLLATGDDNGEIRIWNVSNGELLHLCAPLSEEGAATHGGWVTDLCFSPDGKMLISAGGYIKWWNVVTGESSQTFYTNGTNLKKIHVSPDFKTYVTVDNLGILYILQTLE
It counts as functional.

The target in assay [13] is T5, Protein RecA (Mycobacterium tuberculosis, UniProt P9WHJ3).
T5 sequence (P9WHJ3 whole entry): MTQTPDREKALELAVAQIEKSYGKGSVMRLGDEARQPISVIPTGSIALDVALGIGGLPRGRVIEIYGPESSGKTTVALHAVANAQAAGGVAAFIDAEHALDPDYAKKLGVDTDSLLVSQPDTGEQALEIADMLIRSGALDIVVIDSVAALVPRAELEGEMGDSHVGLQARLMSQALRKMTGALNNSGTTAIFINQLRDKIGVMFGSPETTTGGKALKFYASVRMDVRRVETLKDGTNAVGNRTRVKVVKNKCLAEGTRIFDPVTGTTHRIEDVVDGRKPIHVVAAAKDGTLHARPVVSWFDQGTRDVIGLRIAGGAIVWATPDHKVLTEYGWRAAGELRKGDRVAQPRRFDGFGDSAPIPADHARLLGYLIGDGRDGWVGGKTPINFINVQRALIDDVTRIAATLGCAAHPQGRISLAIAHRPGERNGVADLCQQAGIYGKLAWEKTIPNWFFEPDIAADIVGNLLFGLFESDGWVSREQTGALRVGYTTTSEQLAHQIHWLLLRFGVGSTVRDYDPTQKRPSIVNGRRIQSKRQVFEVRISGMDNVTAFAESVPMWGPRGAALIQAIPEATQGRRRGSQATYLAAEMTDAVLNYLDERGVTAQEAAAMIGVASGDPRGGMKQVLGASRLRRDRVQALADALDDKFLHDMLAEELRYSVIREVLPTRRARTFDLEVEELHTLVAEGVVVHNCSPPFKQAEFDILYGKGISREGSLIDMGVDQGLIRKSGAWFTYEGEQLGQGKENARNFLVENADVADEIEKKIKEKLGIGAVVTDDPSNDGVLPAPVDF
Kind of assay: Fluorescence Cell-Free Homogeneous Dose Retest to Identify Inhibitors of RecA-Intein Splicing Activity. [Related pubchem assays (depositor defined):AID2097, AID2223, AID489010, AID492950]. It counts as functional.

Our source for the AC50, IC50 and EC50 values is ChEMBL document CHEMBL1201862, “PubChem BioAssay data set” (2004).

Calls of active or inactive are those of the source.

Adenosylmethionine-8-amino-7-oxononanoate aminotransferase, sequence (P9WQ81 whole entry): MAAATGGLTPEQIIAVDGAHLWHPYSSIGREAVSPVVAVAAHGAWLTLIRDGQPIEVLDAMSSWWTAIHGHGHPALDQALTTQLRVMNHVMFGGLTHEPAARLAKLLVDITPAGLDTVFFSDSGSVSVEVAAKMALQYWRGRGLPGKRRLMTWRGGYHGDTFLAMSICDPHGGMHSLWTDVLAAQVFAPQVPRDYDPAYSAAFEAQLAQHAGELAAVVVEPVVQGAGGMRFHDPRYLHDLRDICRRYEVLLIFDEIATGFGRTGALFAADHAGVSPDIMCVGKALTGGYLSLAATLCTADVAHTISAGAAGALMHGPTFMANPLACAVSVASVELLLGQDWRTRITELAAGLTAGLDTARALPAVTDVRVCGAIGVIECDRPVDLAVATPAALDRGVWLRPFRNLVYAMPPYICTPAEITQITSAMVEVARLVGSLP
Ras and Rab interactor 1/Tyrosine-protein kinase ABL1, sequence (P00519 whole entry): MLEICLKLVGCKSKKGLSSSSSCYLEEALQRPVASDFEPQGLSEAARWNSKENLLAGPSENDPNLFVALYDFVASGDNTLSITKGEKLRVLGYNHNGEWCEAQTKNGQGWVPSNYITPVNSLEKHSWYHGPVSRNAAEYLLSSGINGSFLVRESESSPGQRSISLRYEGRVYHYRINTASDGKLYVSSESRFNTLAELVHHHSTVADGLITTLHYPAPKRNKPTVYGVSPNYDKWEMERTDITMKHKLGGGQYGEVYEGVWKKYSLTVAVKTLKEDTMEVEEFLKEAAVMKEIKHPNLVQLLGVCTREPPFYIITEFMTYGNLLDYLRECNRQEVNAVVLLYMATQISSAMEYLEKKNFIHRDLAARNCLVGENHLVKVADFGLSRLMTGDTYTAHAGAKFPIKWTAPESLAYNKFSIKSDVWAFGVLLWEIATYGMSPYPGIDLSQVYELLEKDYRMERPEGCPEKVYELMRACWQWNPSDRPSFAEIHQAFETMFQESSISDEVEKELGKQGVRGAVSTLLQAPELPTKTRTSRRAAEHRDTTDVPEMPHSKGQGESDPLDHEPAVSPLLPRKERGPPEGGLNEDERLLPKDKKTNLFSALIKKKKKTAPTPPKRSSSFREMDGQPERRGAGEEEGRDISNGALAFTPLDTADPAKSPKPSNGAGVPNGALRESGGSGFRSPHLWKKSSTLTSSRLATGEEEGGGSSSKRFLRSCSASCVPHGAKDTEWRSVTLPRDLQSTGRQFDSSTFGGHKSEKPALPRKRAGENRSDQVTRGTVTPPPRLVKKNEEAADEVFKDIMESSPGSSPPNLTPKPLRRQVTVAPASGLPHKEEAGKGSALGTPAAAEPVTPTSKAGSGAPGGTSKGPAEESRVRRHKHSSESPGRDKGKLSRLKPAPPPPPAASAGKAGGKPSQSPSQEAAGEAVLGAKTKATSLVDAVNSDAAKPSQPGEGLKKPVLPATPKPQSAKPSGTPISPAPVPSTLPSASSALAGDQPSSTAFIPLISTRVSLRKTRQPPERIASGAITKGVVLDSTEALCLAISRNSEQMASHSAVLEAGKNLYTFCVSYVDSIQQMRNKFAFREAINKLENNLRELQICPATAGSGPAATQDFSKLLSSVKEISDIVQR
Ras and Rab interactor 1/Tyrosine-protein kinase ABL1, sequence (Q13671 whole entry): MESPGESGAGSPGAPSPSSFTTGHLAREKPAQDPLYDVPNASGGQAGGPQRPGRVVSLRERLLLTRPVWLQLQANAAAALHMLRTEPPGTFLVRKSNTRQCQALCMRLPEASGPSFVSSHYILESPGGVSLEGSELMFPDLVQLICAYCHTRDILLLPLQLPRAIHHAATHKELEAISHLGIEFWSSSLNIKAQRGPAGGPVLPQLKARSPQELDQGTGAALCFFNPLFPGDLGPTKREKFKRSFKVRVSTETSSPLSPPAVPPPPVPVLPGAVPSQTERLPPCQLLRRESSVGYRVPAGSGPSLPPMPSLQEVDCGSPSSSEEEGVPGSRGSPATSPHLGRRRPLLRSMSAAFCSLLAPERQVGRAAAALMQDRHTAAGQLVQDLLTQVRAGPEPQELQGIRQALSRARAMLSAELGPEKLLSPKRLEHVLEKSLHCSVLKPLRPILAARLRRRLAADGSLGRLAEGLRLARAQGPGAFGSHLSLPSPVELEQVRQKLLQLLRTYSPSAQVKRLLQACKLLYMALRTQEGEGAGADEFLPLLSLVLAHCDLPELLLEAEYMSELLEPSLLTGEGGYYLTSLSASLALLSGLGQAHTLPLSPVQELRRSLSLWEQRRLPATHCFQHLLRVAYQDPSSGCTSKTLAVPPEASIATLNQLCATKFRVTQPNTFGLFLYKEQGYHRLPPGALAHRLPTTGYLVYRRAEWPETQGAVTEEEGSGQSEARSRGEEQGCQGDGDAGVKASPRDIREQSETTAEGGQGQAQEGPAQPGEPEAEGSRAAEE
Nonstructural protein 1, sequence (Q194T2 whole entry): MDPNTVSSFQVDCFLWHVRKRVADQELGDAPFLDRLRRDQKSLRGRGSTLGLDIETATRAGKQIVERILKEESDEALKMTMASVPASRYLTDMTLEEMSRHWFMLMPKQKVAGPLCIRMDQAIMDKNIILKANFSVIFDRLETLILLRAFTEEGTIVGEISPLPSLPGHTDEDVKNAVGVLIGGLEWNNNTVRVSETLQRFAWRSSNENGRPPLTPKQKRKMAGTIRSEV
Dual specificity protein phosphatase 3, sequence (P51452 whole entry): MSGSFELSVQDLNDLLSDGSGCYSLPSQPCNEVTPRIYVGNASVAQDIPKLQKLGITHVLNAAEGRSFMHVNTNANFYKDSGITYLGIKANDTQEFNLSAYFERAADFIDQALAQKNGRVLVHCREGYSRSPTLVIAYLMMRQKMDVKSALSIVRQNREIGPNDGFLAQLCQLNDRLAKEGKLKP
DNA repair and recombination protein RAD54-like, sequence (Q92698 whole entry): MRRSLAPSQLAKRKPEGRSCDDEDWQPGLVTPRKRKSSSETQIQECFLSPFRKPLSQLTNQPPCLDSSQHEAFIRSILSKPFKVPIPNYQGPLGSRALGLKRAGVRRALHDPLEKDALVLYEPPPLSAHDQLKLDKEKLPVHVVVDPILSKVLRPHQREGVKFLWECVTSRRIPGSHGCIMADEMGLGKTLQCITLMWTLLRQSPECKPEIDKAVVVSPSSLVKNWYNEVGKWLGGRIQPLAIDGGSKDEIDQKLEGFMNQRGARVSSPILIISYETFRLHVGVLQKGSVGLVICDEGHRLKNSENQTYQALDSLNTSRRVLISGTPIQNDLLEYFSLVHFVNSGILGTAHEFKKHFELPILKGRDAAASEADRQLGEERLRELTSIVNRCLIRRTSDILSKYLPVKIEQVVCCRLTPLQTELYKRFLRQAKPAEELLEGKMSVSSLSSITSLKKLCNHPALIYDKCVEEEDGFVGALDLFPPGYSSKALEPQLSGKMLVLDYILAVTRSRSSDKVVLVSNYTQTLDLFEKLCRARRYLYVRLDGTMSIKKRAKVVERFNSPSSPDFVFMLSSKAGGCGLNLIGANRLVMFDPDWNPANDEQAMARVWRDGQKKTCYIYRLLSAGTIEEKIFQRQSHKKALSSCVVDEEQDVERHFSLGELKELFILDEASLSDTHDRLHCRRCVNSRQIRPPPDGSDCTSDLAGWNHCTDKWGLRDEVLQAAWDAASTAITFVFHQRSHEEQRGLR
Tyrosine-protein phosphatase non-receptor type 5, sequence (P54829 whole entry): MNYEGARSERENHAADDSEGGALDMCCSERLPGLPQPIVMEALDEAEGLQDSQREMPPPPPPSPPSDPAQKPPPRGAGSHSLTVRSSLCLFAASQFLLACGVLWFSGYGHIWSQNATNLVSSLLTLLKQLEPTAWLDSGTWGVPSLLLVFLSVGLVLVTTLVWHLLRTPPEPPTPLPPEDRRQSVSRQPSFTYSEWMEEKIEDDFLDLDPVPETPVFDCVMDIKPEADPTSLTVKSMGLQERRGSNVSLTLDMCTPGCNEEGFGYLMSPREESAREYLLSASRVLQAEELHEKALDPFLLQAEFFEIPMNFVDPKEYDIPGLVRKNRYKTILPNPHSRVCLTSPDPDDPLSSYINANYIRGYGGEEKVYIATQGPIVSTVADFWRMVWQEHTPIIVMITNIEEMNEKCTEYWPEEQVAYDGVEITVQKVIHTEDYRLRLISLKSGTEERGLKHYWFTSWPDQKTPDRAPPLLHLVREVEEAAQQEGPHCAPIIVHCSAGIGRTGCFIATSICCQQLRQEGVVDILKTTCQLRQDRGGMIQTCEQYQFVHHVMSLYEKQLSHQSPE
Tyrosine-protein phosphatase non-receptor type 11, sequence (Q06124 whole entry): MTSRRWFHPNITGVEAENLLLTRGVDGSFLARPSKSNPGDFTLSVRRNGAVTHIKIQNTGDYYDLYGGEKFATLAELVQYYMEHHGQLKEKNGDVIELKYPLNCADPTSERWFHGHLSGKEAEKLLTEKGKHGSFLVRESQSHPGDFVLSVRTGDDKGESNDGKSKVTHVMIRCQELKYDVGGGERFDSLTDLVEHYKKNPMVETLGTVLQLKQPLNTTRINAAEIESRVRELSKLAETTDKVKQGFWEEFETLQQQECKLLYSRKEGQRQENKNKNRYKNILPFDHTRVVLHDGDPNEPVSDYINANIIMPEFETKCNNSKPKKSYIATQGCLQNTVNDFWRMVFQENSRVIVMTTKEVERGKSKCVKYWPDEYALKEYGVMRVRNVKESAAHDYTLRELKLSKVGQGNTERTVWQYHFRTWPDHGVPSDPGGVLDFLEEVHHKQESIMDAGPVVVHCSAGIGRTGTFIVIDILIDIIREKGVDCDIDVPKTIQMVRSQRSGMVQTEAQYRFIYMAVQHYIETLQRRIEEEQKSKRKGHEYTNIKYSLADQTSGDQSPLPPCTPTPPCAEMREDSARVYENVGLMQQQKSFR

With `CCOC(=O)c1ccc(N2C(=O)c3[nH]nc(C)c3C2c2ccc(OC)c(OC)c2)cc1` (stereo unspecified), the AC50 in assay [1] was 128 nM (active).
For `Cc1ccc(NC(=O)CCCCCC2NC(=O)NC2C)cc1` (stereo unspecified), the IC50 in [2] was 1060 nM (active); in assay [3] it was 14.5 nM (active). Besides, the AC50 in [4] is 358 nM (active).
As for `N#Cc1nc(Cc2cccc3ccccc23)oc1NCCCN1CCOCC1`, the IC50 was 3800 nM (active) in assay [5] and 1580 nM (active) in assay [6].
`COc1ccc(NC(=O)c2cc(=O)c3ccccc3o2)cc1Cl`: the IC50 is 2820 nM (active) in assay [7], > 80000 nM (inactive) in [8] and 4600 nM (active) in assay [9].
Take `O=C(Nc1cccnc1)c1cc2nc(C3CC3)cc(C(F)(F)F)n2n1`: the AC50 in assay [1] is 144 nM (active).
As for `CNc1nc(SC)nc2ccsc12`, the results for the IC50 in [5] and in [6] were 743 nM (active) and 1500 nM (active), respectively.
As for `CCN1CCN(c2cc(C)c3cc(NC(S)=NCCN(C)C)ccc3n2)CC1`, the AC50 in [10] is 24300 nM (active).
As to `COc1ccc(S(=O)(=O)/N=C2\C=C(NS(=O)(=O)c3ccccc3)C(=O)c3ccccc32)cc1`, the AC50 in assay [11] was 1890 nM (active). The IC50 in assay [12] is 16600 nM (active). Moreover, the EC50 in assay [13] was 1580 nM (active).

By AC50 is commonly meant the concentration giving half of the maximal activity seen. In general, EC50 refers to the concentration needed to bring the measured effect to its halfway point.
